Experimental data: US10221171B2, “Oxathiazole thiazolium Hsp 70 inhibitors” (THE REGENTS OF THE UNIVERSITY OF CALIFORNIA, priority 2015, dated 2019)
Read-outs that look alike come from different tables or passages of the source.

Key:
Assay type in all cases: cell-based
MCF-7 = test: MTT cell viability assay, MCF-7; settings: Homo sapiens, MTT, 72-hour incubation, read-out: IC50/μM MCF-7
MDA-MB-231 = test: MTT cell viability assay, MDA-MB-231; settings: Homo sapiens
MEF (C57BL/6) = test: MTT cell viability assay, MEF (C57BL/6); settings: Mus musculus
[1] = MTT, 72-hour incubation, read-out: IC50/μM MEF (C57BL/6)
[2] = MDA-MB-231, 72 h, 72-hour incubation

Row | Structure (SMILES) | IC50 (MCF-7; MCF7) | IC50 (MDA-MB-231; MDA-MB-231, 72-hour incubation) | IC50 (MEF (C57BL/6); [1]) | IC50 (MDA-MB-231; [2]) | IC50 (MEF (C57BL/6); 72 h, read-out: IC50/μM MEF (C57BL/6), MTT, 72-hour incubation) | IC50 (MCF-7; MCF7, 72 h)
1 | CCn1c(=O)/c(=C2\Sc3cc(Br)ccc3N2C)s/c1=C\c1scc[n+]1Cc1ccsc1 [JG-278] | 0.39 ± 0.06 µM | 0.23 ± 0.04 µM | 3.4 ± 0.2 µM | – | – | –
2 | CCn1c(=O)/c(=C2\Sc3cc([N+](=O)[O-])ccc3N2C)s/c1=C\c1scc[n+]1Cc1ccccc1 [JG-252] | > 5 µM | – | – | 4.8 ± 0.4 µM | 2.8 ± 0.1 µM | –
3 | CCn1c(=O)/c(=C2\Sc3cc(F)ccc3N2C)s/c1=C\c1scc[n+]1Cc1ccccc1S(C)(=O)=O [JG-288] | 1.97 ± 0.11 µM | 0.64 ± 0.08 µM | > 10 µM | – | – | –
4 | CCn1c(=O)/c(=C2\Sc3cc(Cl)ccc3N2C)s/c1=C\c1scc[n+]1Cc1ccnc(Cl)c1 [JG-257] | > 5 µM | – | 1.1 ± 0.1 µM | 7.2 ± 0.8 µM | – | –
5 | CCn1c(=O)/c(=C2\Sc3cc(C)ccc3N2C)s/c1=C\c1scc[n+]1Cc1ccccc1C [JG-284] | 0.09 ± 0.006 µM | 0.09 ± 0.005 µM | 0.64 ± 0.03 µM | – | – | –
6 | CCn1c(=O)/c(=C2\Sc3cc(OC)ccc3N2C)s/c1=C\c1scc[n+]1Cc1c(Cl)cccc1Cl [JG-348] | 0.1 ± 0.01 µM | 0.1 ± 0.01 µM | 1.1 ± 0.1 µM | – | – | –
7 | CCn1c(=O)/c(=C2\Sc3cc(Br)ccc3N2C)s/c1=C\c1scc[n+]1Cc1ccccc1C(F)(F)F [JG-292] | 0.12 ± 0.01 µM | 0.18 ± 0.02 µM | 2.7 ± 0.1 µM | – | – | –
8 | CCc1ccc2c(c1)S/C(=c1/s/c(=C\c3scc[n+]3Cc3c(Cl)cccc3Cl)n(CC)c1=O)N2C [JG-342] | – | 0.1 ± 0.01 µM | 0.3 ± 0.1 µM | – | – | 0.093 ± 0.007 µM
9 | CCn1c(=O)/c(=C2\Sc3cc(Cl)ccc3N2C)s/c1=C\c1scc[n+]1CCc1cccc(C(F)(F)F)c1 [JG-383] | 0.78 ± 0.06 µM | 0.74 ± 0.08 µM | 2.3 ± 0.2 µM | – | – | –
10 | CCn1c(=O)/c(=C2\Sc3ccc(OC)cc3N2C)s/c1=C\c1scc[n+]1Cc1c(Cl)cccc1Cl [JG-403] | 0.7 ± 0.08 µM | 0.2 ± 0.01 µM | 1.2 ± 0.1 µM | – | – | –
11 | CCn1c(=O)/c(=C2\Sc3cc(SC)ccc3N2C)s/c1=C\c1scc[n+]1Cc1c(Cl)cccc1Cl [JG-354] | 0.13 ± 0.01 µM | 0.096 ± 0.01 µM | 1.1 ± 0.1 µM | – | – | –
12 | CCn1c(=O)/c(=C2\Sc3cc(SC)ccc3N2C)s/c1=C\c1scc[n+]1Cc1c(C)cccc1C [JG-355] | 0.28 ± 0.02 µM | 0.21 ± 0.01 µM | 1.5 ± 0.1 µM | – | – | –
13 | CCn1c(=O)/c(=C2\Sc3cc(Cl)ccc3N2C)s/c1=C\c1scc[n+]1Cc1ccccc1Br [JG-307] | 0.12 ± 0.01 µM | 0.13 ± 0.02 µM | 1.1 ± 0.1 µM | – | – | –
14 | CCn1c(=O)/c(=C2\Sc3ccc(C)cc3N2C)s/c1=C\c1scc[n+]1Cc1ccccc1C [JG-366] | 0.19 ± 0.01 µM | 0.22 ± 0.02 µM | 0.99 ± 0.04 µM | – | – | –
15 | CCn1c(=O)/c(=C2\Sc3cc(Cl)ccc3N2C)s/c1=C\c1scc[n+]1CCc1ccccc1C [JG-391] | 0.68 ± 0.04 µM | 0.26 ± 0.01 µM | 2.5 ± 0.2 µM | – | – | –
16 | CCn1c(=O)/c(=C2\Sc3ccc(C)cc3N2C)s/c1=C\c1scc[n+]1Cc1ccsc1C(=O)OC [JG-369] | 0.063 ± 0.004 µM | 0.12 ± 0.01 µM | 0.44 ± 0.02 µM | – | – | –
17 | CCn1c(=O)/c(=C2\Sc3cc(C)ccc3N2C)s/c1=C\c1scc[n+]1Cc1ccc(C(F)(F)F)o1 [JG-286] | 0.27 ± 0.02 µM | 0.14 ± 0.01 µM | 5 ± 0.6 µM | – | – | –
18 | CCn1c(=O)/c(=C2\Sc3cc(Cl)ccc3N2C)s/c1=C\c1scc[n+]1CCc1cccc(Cl)c1 [JG-381] | 0.55 ± 0.03 µM | 0.62 ± 0.05 µM | 2.3 ± 0.2 µM | – | – | –
19 | CCn1c(=O)/c(=C2\Sc3cc(F)ccc3N2C)s/c1=C\c1scc[n+]1Cc1c(C)noc1C [JG-268] | > 5 µM | > 20 µM | > 10 µM | – | – | –
